Data as given in patent US9403803B2, “Indole-3-carboxamides as kinase inhibitors” (Allergan, Inc., priority 2014, dated 2016).
pIC50: −log10 of the molar value.

What was measured:
[1] = biological target: PDGFRβ kinase, purified cytoplasmic domain PDGFR-b protein (Homo sapiens (Human), UniProt P09619); assay: PDGFRβ Kinase Assay; type: biochemical; settings: 36 μM ATP, poly-Glu-Tyr (4:1) substrate, 60 minute incubation at 30° C.
Method: (§1) Biochemical PDGFRβ kinase assays were performed in 96 well microtiter plates that were coated overnight with 75 μg of poly-Glu-Tyr (4:1) in 10 mM Phosphate Buffered Saline (PBS), pH 7.4. The coated plates were washed with 2 mls per well PBS+0.05% Tween-20 (PBS-T), blocked by incubation with PBS containing 1% BSA, then washed with 2 mls per well PBS-T prior to starting the reaction. Reactions were carried out in 100 μL reaction volumes containing 36 μM ATP in kinase buffer (50 mM Hepes buffer pH 7.4, 20 mM MgCl2, 0.1 mM MnCl2 and 0.2 mM Na3VO4). Test compounds were reconstituted in 100% DMSO and added to the reaction to give a final DMSO concentration of 5%. Reactions were initiated by the addition 20 ul per well of kinase buffer containing 200-300 ng purified cytoplasmic domain PDGFR-b protein (Millipore). Following a 60 minute incubation at 30° C., the reactions were washed 2 mls per well PBS-T. 100 μl of a monoclonal anti-phosphotyrosine antibody-peroxidase conjugate diluted 1:10,000 in PBS-T was added to the wells for 30 minutes. Following a 2 mls per well wash with PBS-Tween-20, 100 μl of O-Phenylenediamine Dihydrochloride in phosphate-citrate buffer, containing urea hydrogen peroxide, was added to the wells for 7-10 minutes as a colorimetric substrate for the peroxidase. The reaction was terminated by the addition of 100 μl of 2.5N H2SO4 to each well and read using a microplate ELISA reader set at 492 nm. IC50 values for compound inhibition were calculated directly from graphs of optical density (arbitrary units) versus compound concentration following subtraction of blank values.

[2] = biological target: VEGFR2 (KDR) kinase, purified cytoplasmic domain KDR protein (Homo sapiens (Human), UniProt P35968); assay: VEGFR2 Kinase Assay; type: biochemical; settings: 2.7 μM ATP, poly-Glu-Tyr (4:1) substrate, 15 minute incubation at 30° C.
VEGFR2 (KDR) kinase, purified cytoplasmic domain KDR protein, sequence (P35968 786-1356, species assumed): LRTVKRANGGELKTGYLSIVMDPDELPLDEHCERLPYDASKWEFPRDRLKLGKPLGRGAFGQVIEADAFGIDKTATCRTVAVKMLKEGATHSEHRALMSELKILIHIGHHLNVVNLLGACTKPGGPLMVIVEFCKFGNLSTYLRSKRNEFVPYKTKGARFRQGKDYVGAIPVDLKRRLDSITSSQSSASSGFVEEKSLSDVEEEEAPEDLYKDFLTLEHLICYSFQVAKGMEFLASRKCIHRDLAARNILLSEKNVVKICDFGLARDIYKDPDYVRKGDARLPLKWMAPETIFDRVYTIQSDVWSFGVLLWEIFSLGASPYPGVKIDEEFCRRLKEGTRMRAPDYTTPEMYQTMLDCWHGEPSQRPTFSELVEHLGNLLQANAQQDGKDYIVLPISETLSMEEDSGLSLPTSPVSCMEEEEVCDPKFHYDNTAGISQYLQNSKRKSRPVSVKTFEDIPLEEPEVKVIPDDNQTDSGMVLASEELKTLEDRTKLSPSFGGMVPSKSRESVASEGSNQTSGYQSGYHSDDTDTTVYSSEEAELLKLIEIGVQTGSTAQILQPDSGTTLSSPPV
Method: as §1, with “KDR” for “PDGFRβ”, “μg/well” for “μg”, “2.7” for “36”, “KDR” for “PDGFR-b”, “(BPS Bioscience, San Diego, Calif.).” for “(Millipore).”, “15” for “60”

PDGFRβ kinase, purified cytoplasmic domain PDGFR-b protein, sequence (P09619 554-1106): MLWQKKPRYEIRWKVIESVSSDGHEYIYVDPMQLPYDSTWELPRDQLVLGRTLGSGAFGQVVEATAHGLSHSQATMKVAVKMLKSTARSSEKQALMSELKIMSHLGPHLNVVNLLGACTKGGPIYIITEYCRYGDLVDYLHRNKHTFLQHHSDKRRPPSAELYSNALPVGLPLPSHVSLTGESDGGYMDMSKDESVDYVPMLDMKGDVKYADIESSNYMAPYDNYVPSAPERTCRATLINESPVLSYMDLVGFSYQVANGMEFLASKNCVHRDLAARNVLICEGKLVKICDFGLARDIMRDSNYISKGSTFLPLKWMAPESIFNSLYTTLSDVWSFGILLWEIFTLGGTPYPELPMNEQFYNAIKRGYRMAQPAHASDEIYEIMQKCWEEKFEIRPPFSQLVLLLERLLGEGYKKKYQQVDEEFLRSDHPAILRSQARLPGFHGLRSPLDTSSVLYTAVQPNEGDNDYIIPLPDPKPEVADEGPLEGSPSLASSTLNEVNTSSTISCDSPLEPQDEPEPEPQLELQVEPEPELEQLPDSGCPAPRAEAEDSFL

Row | SMILES | pIC50 [1] | pIC50 [2]
1 | Cc1cccc(NC(=O)Nc2ccc(-c3[nH]c4ccccc4c3C(N)=O)cc2)c1 [Compound 1, 2-[4-({[(3-methylphenyl)amino]carbonyl}amino)phenyl]-1H-indole-3-carboxamide] | 6.85 | 7.89
2 | NC(=O)c1c(-c2ccc(NC(=O)Nc3cccc(C(F)(F)F)c3)cc2)[nH]c2ccccc12 [Compound 2, 2-{4-[({[3-(trifluoromethyl)phenyl]amino}carbonyl)amino]phenyl}-1H-indole-3-carboxamide] | 7.21 | 8.15
3 | Cc1ccc(F)c(NC(=O)Nc2ccc(-c3[nH]c4ccccc4c3C(N)=O)cc2)c1 [Compound 3, 2-[4-({[(2-fluoro-5-methylphenyl)amino]carbonyl}amino)phenyl]-1H-indole-3-carboxamide] | 6.57 | 7.77
4 | CCc1cccc(NC(=O)Nc2ccc(-c3[nH]c4ccccc4c3C(N)=O)cc2)c1 [Compound 4, 2-[4-({[(3-ethylphenyl)amino]carbonyl}amino)phenyl]-1H-indole-3-carboxamide] | 7.43 | 8.15
5 | Cc1ccoc1C(=O)Nc1ccc(-c2[nH]c3ccccc3c2C(N)=O)cc1 [Compound 5, 2-{4-[(3-methyl-2-furoyl)amino]phenyl}-1H-indole-3-carboxamide] |  | < 5.00
6 | Cc1ccc(F)c(C(=O)Nc2ccc(-c3[nH]c4ccccc4c3C(N)=O)cc2)c1 [Compound 6, 2-{4-[(2-fluoro-5-methylbenzoyl)amino]phenyl}-1H-indole-3-carboxamide] |  | < 5.00
7 | Cc1cccc(NC(=O)Nc2cccc(-c3[nH]c4ccccc4c3C(N)=O)c2)c1 [Compound 7, 2-[3-({[(3-methylphenyl)amino]carbonyl}amino)phenyl]-1H-indole-3-carboxamide] |  | < 5.00
8 | NC(=O)c1c(-c2cccc(NC(=O)Nc3cccc(C(F)(F)F)c3)c2)[nH]c2ccccc12 [Compound 8, 2-{3-[({[3-(trifluoromethyl)phenyl]amino}carbonyl)amino]phenyl}-1H-indole-3-carboxamide] |  | < 5.00
9 | Cc1ccoc1C(=O)Nc1cccc(-c2[nH]c3ccccc3c2C(N)=O)c1 [Compound 9, 2-{3-[(3-methyl-2-furoyl)amino]phenyl}-1H-indole-3-carboxamide] | < 5.00 | < 5.00
10 | Cc1ccc(F)c(C(=O)Nc2cccc(-c3[nH]c4ccccc4c3C(N)=O)c2)c1 [Compound 10, 2-{3-[(2-fluoro-5-methylbenzoyl)amino]phenyl}-1H-indole-3-carboxamide] |  | < 5.00
